Data on 14 molecules can be found in patent publication US20250064945A1 (Arvinas Operations, Inc., priority 2021, published 2025).

The structures appear in SMILES notation. Where a name gives a salt, the structure may show the parent alone.

In the assay the target is T1, BRM (Homo sapiens, UniProt P51531).
T1 construct: In-Cell Western Screen of BRM Degradation in SW1573 Cells; endogenous in cells; host or cells: SW1573 cells
As to the kind of experiment: Western blot / In-Cell Western screen of BRM degradation in SW1573 cells. The class given is cell-based. Particulars: overnight (18-20 hours) treatment; for Dmax: read-out: Dmax (%) (% degraded). The method, boiled down: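 SW1573 cells treated overnight (18-20 hours) with compound at 0.1% final DMSO. BRM measured either by Western blot of RIPA lysates with alpha-tubulin control and chemiluminescent detection, or by In-Cell Western on fixed, permeabilized cells with LI-COR dual-channel read against alpha-tubulin; Dmax and DC50 derived.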
(In general: A western blot detects proteins with antibodies after separation by electrophoresis.)

T1 sequence (P51531 whole entry): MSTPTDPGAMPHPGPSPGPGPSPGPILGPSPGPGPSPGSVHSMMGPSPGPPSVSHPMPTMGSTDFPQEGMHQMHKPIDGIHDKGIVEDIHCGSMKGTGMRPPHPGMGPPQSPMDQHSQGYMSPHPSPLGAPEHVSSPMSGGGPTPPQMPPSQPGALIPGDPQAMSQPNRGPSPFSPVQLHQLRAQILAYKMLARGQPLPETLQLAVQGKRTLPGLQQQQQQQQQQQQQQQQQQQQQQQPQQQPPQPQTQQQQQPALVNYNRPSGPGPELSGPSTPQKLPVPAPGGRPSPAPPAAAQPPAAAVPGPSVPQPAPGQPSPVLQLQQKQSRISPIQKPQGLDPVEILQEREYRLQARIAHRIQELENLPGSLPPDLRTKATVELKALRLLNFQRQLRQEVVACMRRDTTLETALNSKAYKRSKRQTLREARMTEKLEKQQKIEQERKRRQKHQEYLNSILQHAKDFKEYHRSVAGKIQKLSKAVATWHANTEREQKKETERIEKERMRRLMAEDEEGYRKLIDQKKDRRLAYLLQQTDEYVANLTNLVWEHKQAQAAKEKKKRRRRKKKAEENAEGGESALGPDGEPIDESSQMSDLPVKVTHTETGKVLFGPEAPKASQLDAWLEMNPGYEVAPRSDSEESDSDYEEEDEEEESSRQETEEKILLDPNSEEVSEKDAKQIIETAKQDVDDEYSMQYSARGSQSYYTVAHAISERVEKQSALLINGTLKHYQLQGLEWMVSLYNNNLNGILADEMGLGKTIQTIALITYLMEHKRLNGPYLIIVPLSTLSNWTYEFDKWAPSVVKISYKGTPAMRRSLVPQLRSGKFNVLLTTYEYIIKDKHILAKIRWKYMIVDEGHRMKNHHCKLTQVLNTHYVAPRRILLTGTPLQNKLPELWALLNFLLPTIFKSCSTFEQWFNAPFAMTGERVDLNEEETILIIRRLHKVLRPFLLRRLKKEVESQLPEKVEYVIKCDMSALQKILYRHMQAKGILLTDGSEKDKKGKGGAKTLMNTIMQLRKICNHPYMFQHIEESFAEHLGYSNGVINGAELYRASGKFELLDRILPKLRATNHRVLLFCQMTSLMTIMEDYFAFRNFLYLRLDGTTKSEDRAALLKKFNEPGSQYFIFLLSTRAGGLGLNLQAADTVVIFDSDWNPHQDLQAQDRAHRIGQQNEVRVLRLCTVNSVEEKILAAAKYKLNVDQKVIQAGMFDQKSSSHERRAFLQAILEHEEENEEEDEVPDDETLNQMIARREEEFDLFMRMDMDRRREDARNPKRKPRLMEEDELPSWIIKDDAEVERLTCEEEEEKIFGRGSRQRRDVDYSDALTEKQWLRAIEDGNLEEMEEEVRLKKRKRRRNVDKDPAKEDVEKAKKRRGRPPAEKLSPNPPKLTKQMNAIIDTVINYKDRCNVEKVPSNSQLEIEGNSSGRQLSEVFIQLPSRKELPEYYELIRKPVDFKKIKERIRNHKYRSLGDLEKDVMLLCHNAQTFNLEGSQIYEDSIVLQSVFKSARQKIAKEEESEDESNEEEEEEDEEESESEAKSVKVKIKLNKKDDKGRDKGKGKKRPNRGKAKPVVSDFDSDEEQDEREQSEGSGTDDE

As a reminder, the DC50 is the midpoint of the concentration-degradation curve. A low value points to degradation at low concentration. As a reminder, the Dmax is the greatest extent of degradation seen. Consider `Cc1ncsc1-c1ccc([C@H](C)NC(=O)[C@@H]2C[C@@H](O)CN2C(=O)[C@@H](c2cc(N3CCC(CN4CCC(O[C@H]5C[C@H](Oc6cc(N7C[C@@H]8CN(c9cc(-c%10ccccc%10O)nnc9N)C[C@@H]8C7)ccn6)C5)CC4)CC3)no2)C(C)C)cc1` [Compound 7, (2S,4R)-4-hydroxy-N-[(1S)-1-[4-(4-methyl-1,3-thiazol-5-yl)phenyl]ethyl]-1-[(2R)-3-methyl-2-{3-[4-({4-[(1r,3r)-3-({4-[(3aR,6aS)-5-[3-amino-6-(2-hydroxyphenyl)pyridazin-4-yl]-octahydropyrrolo[3,4-c]pyrrol-2-yl]pyridin-2-yl}oxy)cyclobutoxy]piperidin-1-yl}methyl)piperidin-1-yl]-1,2-oxazol-5-yl}butanoyl]pyrrolidine-2-carboxamide], for which the DC50 is less than 2.5 nM and the Dmax is greater than 75%.
Take `Cc1ncsc1-c1ccc([C@H](C)NC(=O)[C@@H]2C[C@@H](O)CN2C(=O)[C@@H](c2cc(N3CCC(CN4CCC(O[C@H]5C[C@H](Oc6cc(CCc7cc(-c8ccccc8O)nnc7N)ccn6)C5)CC4)CC3)no2)C(C)C)cc1` [Compound 1, (2S,4R)-4-hydroxy-N-[(1S)-1-[4-(4-methyl-1,3-thiazol-5-yl)phenyl]ethyl]-1-[(2R)-3-methyl-2-{3-[4-({4-[(1r,3r)-3-[(4-{2-[3-amino-6-(2-hydroxyphenyl)pyridazin-4-yl]ethyl}pyridin-2-yl)oxy]cyclobutoxy]piperidin-1-yl}methyl)piperidin-1-yl]-1,2-oxazol-5-yl}butanoyl]pyrrolidine-2-carboxamide]: the DC50 fell in the range of 2.5 to 10 nM and the Dmax is greater than 75%.
For `Cc1ncsc1-c1ccc([C@H](C)NC(=O)[C@@H]2C[C@@H](O)CN2C(=O)[C@@H](c2cc(OCCCC#Cc3cn4cc(-c5ccccc5O)nc4nc3N)no2)C(C)C)cc1` [Compound 31, (2S,4R)-1-[(2R)-2-[3-[5-[7-amino-2-(2-hydroxyphenyl)imidazo[1,2-a]pyrimidin-6-yl]pent-4-ynoxy]isoxazole-5-yl]-3-methyl-butanoyl]-4-hydroxy-N-[(1S)-1-[4-(4-methylthiazol-5-yl)phenyl]ethyl]pyrrolidine-2-carboxamide], the DC50 is no less than 30 nM.
As for `Cc1ncsc1-c1ccc([C@H](C)NC(=O)[C@@H]2C[C@@H](O)CN2C(=O)[C@@H](c2cc(N3CCC(CN4CCC(O[C@H]5C[C@H](n6ccnc6CN6C7CCC6CN(c6cc(-c8ccccc8O)nnc6N)C7)C5)CC4)CC3)no2)C(C)C)cc1` [Compound 8, (2S,4R)-4-hydroxy-N-[(1S)-1-[4-(4-methyl-1,3-thiazol-5-yl)phenyl]ethyl]-1-[(2R)-3-methyl-2-{3-[4-({4-[(1r,3r)-3-[2-({3-[3-amino-6-(2-hydroxyphenyl)pyridazin-4-yl]-3,8-diazabicyclo[3.2.1]octan-8-yl}methyl)-1H-imidazol-1-yl]cyclobutoxy]piperidin-1-yl}methyl)piperidin-1-yl]-1,2-oxazol-5-yl}butanoyl]pyrrolidine-2-carboxamide], the DC50 is less than 2.5 nM and the Dmax was greater than 75%.
As to `CC(C)[C@@H](C(=O)N1C[C@H](O)C[C@H]1C(=O)N[C@@H](C)c1ccc(-c2ccnn2C)cc1)c1cc(N2CCC(CN3CCC(O[C@H]4C[C@H](OCC#Cc5cn6cc(-c7ccccc7O)nc6nc5N)C4)CC3)CC2)no1` [Compound 32], the DC50 is less than 2.5 nM and the Dmax is greater than 75%.
Consider `Cc1ncsc1-c1ccc([C@H](C)NC(=O)[C@@H]2C[C@@H](O)CN2C(=O)[C@H](c2cc(OCCN3CCN(CCOc4cc(N5CCN(c6cc(-c7ccccc7O)nnc6N)CC56COC6)ccn4)CC3)no2)C(C)C)cn1` [Compound 16, (2S,4R)-1-[(2S)-2-{3-[2-(4-{2-[(4-{8-[3-amino-6-(2-hydroxyphenyl)pyridazin-4-yl]-2-oxa-5,8-diazaspiro[3.5]nonan-5-yl}pyridin-2-yl)oxy]ethyl}piperazin-1-yl)ethoxy]-1,2-oxazol-5-yl}-3-methylbutanoyl]-4-hydroxy-N-[(1S)-1-[6-(4-methyl-1,3-thiazol-5-yl)pyridin-3-yl]ethyl]pyrrolidine-2-carboxamide], for which the DC50 is no less than 30 nM.
`Cc1ncsc1-c1ccc([C@H](C)NC(=O)[C@@H]2C[C@@H](O)CN2C(=O)[C@@H](c2cc(N3CCC(CN4CCC(O[C@H]5C[C@H](N6CCC(CN7CC8(C7)CN(c7cc(-c9ccccc9O)nnc7N)CCO8)CC6)C5)CC4)CC3)no2)C(C)C)cc1` [Compound 11, (2S,4R)-4-hydroxy-N-[(1S)-1-[4-(4-methyl-1,3-thiazol-5-yl)phenyl]ethyl]-1-[(2R)-3-methyl-2-{3-[4-({4-[(1r,3r)-3-[4-({8-[3-amino-6-(2-hydroxyphenyl)pyridazin-4-yl]-5-oxa-2,8-diazaspiro[3.5]nonan-2-yl}methyl)piperidin-1-yl]cyclobutoxy]piperidin-1-yl}methyl)piperidin-1-yl]-1,2-oxazol-5-yl}butanoyl]pyrrolidine-2-carboxamide]: the DC50 lay in the range of 2.5 to 10 nM and the Dmax was greater than 75%.
Regarding `CC(C)[C@@H](C(=O)N1C[C@H](O)C[C@H]1C(=O)N[C@@H](C)c1ccc(-c2ccnn2C)cc1)c1cc(N2CCC(CN3CCC(O[C@H]4C[C@H](OC/C=C/c5cn6cc(-c7ccccc7O)nc6nc5N)C4)CC3)CC2)no1` [Compound 45, (2S,4R)-4-hydroxy-N-[(1S)-1-[4-(1-methyl-1H-pyrazol-5-yl)phenyl]ethyl]-1-[(2R)-3-methyl-2-{3-[4-({4-[(1r,3r)-3-{[(2E)-3-[7-amino-2-(2-hydroxyphenyl)imidazo[1,2-a]pyrimidin-6-yl]prop-2-en-1-yl]oxy}cyclobutoxy]piperidin-1-yl}methyl)piperidin-1-yl]-1,2-oxazol-5-yl}butanoyl]pyrrolidine-2-carboxamide], the DC50 is less than 2.5 nM and the Dmax was greater than 75%.
As to `Cc1ncsc1-c1ccc([C@H](C)NC(=O)[C@@H]2C[C@@H](O)CN2C(=O)[C@@H](c2cc(N3CCC(CN4CCC(O[C@H]5C[C@H](n6cnc(CN7C8CCC7CN(c7cc(-c9ccccc9O)nnc7N)C8)c6)C5)CC4)CC3)no2)C(C)C)cc1` (relative stereo) [Compound 10, (2S,4R)-4-hydroxy-N-[(1S)-1-[4-(4-methyl-1,3-thiazol-5-yl)phenyl]ethyl]-1-[(2R*)-3-methyl-2-{3-[4-({4-[(1r,3r)-3-[4-({3-[3-amino-6-(2-hydroxyphenyl)pyridazin-4-yl]-3,8-diazabicyclo[3.2.1]octan-8-yl}methyl)-1H-imidazol-1-yl]cyclobutoxy]piperidin-1-yl}methyl)piperidin-1-yl]-1,2-oxazol-5-yl}butanoyl]pyrrolidine-2-carboxamide], the DC50 was less than 2.5 nM and the Dmax was greater than 75%.
On to `Cc1ncsc1-c1ccc([C@H](C)NC(=O)[C@@H]2C[C@@H](O)CN2C(=O)[C@@H](c2cc(N3CCC(O[C@H]4C[C@H](OCC#Cc5cn6cc(-c7ccccc7O)nc6nc5N)C4)CC3)no2)C(C)C)cc1` [Compound 35, formate], for which the DC50 lay within 2.5 to 10 nM and the Dmax was greater than 75%.
The corresponding values for `Cc1ncsc1-c1ccc([C@H](C)NC(=O)[C@@H]2C[C@@H](O)CN2C(=O)[C@@H](c2cc(N3CCC(CN4CCC(O[C@H]5C[C@H](Oc6cc(N7CCN(c8cc(-c9ccccc9O)nnc8N)CC78CC8)ccn6)C5)CC4)CC3)no2)C(C)C)cc1` [Compound 6, (2S,4R)-4-hydroxy-N-[(1S)-1-[4-(4-methyl-1,3-thiazol-5-yl)phenyl]ethyl]-1-[(2R)-3-methyl-2-{3-[4-({4-[(1r,3r)-3-[(4-{7-[3-amino-6-(2-hydroxyphenyl)pyridazin-4-yl]-4,7-diazaspiro[2.5]octan-4-yl}pyridin-2-yl)oxy]cyclobutoxy]piperidin-1-yl}methyl)piperidin-1-yl]-1,2-oxazol-5-yl}butanoyl]pyrrolidine-2-carboxamide] are less than 2.5 nM and greater than 75%.
The corresponding values for `Cc1ncsc1-c1ccc([C@H](C)NC(=O)[C@@H]2C[C@@H](O)CN2C(=O)[C@@H](c2cc(N3CCC(CN4CCC(O[C@H]5C[C@H](C#Cc6cn7cc(-c8ccccc8O)nc7nc6N)C5)CC4)CC3)no2)C(C)C)cc1` [Compound 28, (2S,4R)-4-hydroxy-N-[(1S)-1-[4-(4-methyl-1,3-thiazol-5-yl)phenyl]ethyl]-1-[(2R)-3-methyl-2-{3-[4-({4-[(1r,3r)-3-(2-[7-amino-2-(2-hydroxyphenyl)imidazo[1,2-a]pyrimidin-6-yl]ethynyl}cyclobutoxy]piperidin-1-yl}methyl)piperidin-1-yl]-1,2-oxazol-5-yl}butanoyl]pyrrolidine-2-carboxamide] are less than 2.5 nM and greater than 75%.
With `Cc1ncsc1-c1ccc([C@H](C)NC(=O)[C@@H]2C[C@@H](O)CN2C(=O)[C@@H](c2cc(N3CCC(CN4CCC(O[C@H]5C[C@H](Oc6cc(CC(F)c7cc(-c8ccccc8O)nnc7N)ccn6)C5)CC4)CC3)no2)C(C)C)cc1` (stereo partly drawn) [Compound 2, (2S,4R)-4-hydroxy-N-[(1S)-1-[4-(4-methyl-1,3-thiazol-5-yl)phenyl]ethyl]-1-[(2R)-3-methyl-2-{3-[4-({4-[(1r,3r)-3-[(4-{2-[3-amino-6-(2-hydroxyphenyl)pyridazin-4-yl]-2-fluoroethyl}pyridin-2-yl)oxy]cyclobutoxy]piperidin-1-yl}methyl)piperidin-1-yl]-1,2-oxazol-5-yl}butanoyl]pyrrolidine-2-carboxamide], the DC50 was in the range of 2.5 to 10 nM and the Dmax was greater than 75%.
Take `CC(C)[C@@H](C(=O)N1C[C@H](O)C[C@H]1C(=O)N[C@@H](C)c1ccc(-c2c(F)cnn2C)cc1)c1cc(N2CCC(CN3CCC(O[C@H]4C[C@H](C#Cc5cn6cc(-c7ccccc7O)nc6nc5N)C4)CC3)CC2)no1` [Compound 39, (2S,4R)-N-[(1S)-1-[4-(4-fluoro-1-methyl-1H-pyrazol-5-yl)phenyl]ethyl]-4-hydroxy-1-[(2R)-3-methyl-2-{3-[4-({4-[(1r,3r)-3-{2-[7-amino-2-(2-hydroxyphenyl)imidazo[1,2-a]pyrimidin-6-yl]ethynyl}cyclobutoxy]piperidin-1-yl}methyl)piperidin-1-yl]-1,2-oxazol-5-yl}butanoyl]pyrrolidine-2-carboxamide]: the DC50 is less than 2.5 nM and the Dmax was greater than 75%.
